2 molecules from PMC9697446 (International Journal of Molecular Sciences, 2022) can be followed below.

Molecules are shown by their SMILES.

The target in one test is T1, equine serum BChE (Equus caballus, UniProt P81908).
T1 construct: the equine serum BChE, and the porcine liver CES; purchased Sigma-Aldrich; host or cells: equine serum
The experiment in a line: biochemical. Conditions: IC50 ± SEM, n = 3. How it is done:
(§1) The esterase profile was estimated using the human erythrocyteAChE, the equine serum BChE, and the porcine liver CES.
(§2) Human erythrocyte AChE, equine serum BChE, porcine liver CES, acetylthiocholine iodide (ATCh), butyrylthiocholine iodide (BTCh), 5,5′-dithio-bis-(2-nitrobenzoic acid) (DTNB), 4-nitrophenol acetate (4-NPA), and BNPP were purchased from Sigma-Aldrich (St. Louis, MO, USA).
(§3) AChE and BChE activities were measured via the Ellman method. The assay solution consisted of 0.1 M K/Na phosphate buffer pH 7.5, 25 °C with the addition of 0.33 mM DTNB, 0.02 unit/mL of AChE or BChE and 1 mM of substrate (ATCh or BTCh, respectively). The assays were carried out with a reagent blank containing all components (except AChE orBChE) in order to account for the non-enzymatic hydrolysis of the substrate. In addition, an enzyme blank was included that contained all components except substrate to account for non-substrate sulfhydryl groups.
(§4) The test compounds were dissolved in DMSO, and the incubation mixture contained 2% (v/v) of the solvent. Enzyme inhibition was first assessed at a single concentration of 20 µM for each compound after a 5 min incubation at 25 °C in three separate experiments. […] The test compounds were added to the assay solution and preincubated at 25 °C with the enzymes for 5 min, followed by the addition of substrate. A parallel control was made for the assay solution with no inhibitor. Measurements were performed with a FLUOStar Optima microplate reader (BMG Labtech, Ortenberg, Germany). Each experiment was performed in triplicate. The results were expressed as the mean ± SEM. The reaction rates in the presence and absence of the inhibitor were compared, and the percent of residual enzyme activity due to the presence of test compounds was calculated.

The next test deals with T2, human erythrocyte AChE (Homo sapiens, UniProt P22303).
T2 construct: The esterase profile was estimated using the human erythrocyteAChE; purchased Sigma-Aldrich; host or cells: human erythrocytes
T2 sequence (P22303 32-617 isoform P22303-2 limits assumed): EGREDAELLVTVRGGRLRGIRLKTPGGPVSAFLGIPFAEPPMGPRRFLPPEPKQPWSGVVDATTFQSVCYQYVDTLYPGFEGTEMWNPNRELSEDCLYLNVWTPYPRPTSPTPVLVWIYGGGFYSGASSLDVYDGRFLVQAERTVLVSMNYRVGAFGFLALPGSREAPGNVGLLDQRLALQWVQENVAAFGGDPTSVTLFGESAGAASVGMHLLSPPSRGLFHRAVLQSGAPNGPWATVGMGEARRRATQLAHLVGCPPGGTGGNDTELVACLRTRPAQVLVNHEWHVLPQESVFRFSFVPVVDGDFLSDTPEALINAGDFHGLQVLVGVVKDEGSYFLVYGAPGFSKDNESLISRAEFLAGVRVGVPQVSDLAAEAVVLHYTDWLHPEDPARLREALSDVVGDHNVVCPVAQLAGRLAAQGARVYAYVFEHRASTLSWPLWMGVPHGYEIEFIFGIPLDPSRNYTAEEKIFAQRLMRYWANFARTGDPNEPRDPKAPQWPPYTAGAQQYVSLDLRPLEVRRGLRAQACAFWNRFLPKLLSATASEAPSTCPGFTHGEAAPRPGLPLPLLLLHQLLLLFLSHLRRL
Put plainly: biochemical. Particulars: IC50 ± SEM, n = 3. How it is done:
as §1, §2, §3, §4

A further test concerns porcine liver CES. The experiment in a line: CES inhibition (4-nitrophenyl acetate hydrolysis).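 Note: values are percent inhibition of CES activity not residual activity.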 The format is biochemical. Conditions: ± SEM, n = 3. How it is done: as §1, §2
The assay solution consisted of 0.1 M K/Na phosphate buffer pH 8.0, 25 °C, with the addition of 1 mM 4-nitrophenyl acetate and 0.02 unit/mL of CES. The assays were carried out with a blank containing all components, except CES.
as §4

The target in another test is T3, EeAChE PAS (Electrophorus electricus, UniProt O42275).
T3 construct: purchased Sigma-Aldrich type VI-S
T3 sequence (O42275 24-633): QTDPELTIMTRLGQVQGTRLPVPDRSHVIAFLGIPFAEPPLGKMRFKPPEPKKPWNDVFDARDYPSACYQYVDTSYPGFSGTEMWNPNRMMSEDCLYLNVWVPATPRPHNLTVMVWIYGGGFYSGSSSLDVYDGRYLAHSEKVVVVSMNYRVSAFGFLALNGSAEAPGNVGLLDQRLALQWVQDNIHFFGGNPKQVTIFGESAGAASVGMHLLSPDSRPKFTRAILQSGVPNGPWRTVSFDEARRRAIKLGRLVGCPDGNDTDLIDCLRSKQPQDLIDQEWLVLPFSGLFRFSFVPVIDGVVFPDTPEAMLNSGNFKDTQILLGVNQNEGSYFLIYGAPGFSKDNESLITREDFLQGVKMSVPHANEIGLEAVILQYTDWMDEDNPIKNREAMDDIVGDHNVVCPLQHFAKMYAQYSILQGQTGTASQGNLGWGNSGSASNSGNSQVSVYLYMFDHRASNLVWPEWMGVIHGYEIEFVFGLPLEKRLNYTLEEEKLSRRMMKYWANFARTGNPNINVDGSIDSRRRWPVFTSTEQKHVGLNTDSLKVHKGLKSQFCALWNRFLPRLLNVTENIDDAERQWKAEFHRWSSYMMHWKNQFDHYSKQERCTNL
The experiment in a line: biochemical. Conditions: EeAChE 7 µM, PI 8 µM, means ± SEM (n = 3); for inhibition at 3 µM: compound 3 µM, read-out: PI Displacement, 3 µM; for inhibition at 20 µM: compound 20 µM, read-out: PI Displacement, 20 µM. The format is binding. How it is done:
PIand donepezil were purchased from Sigma-Aldrich. […] As the source of the enzyme, electric eel (Elecrophorus electricus) AChE (EeAChE, type VI-S, lyophilized powder, Sigma-Aldrich, Saint Louis, MO, USA) was used. The applicability of this enzyme was shown earlier
To determine the percentage of displacement of PI from the EeAChE PAS, EeAChE (with a final concentration of 7 μM) was incubated with the test compound at a concentration of 3 and 20 μM in 1 mM Tris-HCl buffer pH 8.0, 25 °C for 15 min. Next, PIsolution (with a final concentration of 8 μM) was added, the samples were incubated for 15 min, and the fluorescence spectrum (530 nm (exc.) and 600 nm (emiss.)) was taken. Donepezil and decamethonium were used as reference compounds. The blank contained PI of the same concentration in 1 mM Tris-HCl buffer pH 8.0. The measurements were carried out in triplicate on a FLUOStar Optima microplate reader).
The percentage of displacement of PIfrom the peripheral anionic site of AChE was calculated using the following formula:% Displacement = 100 − (IFAChE+Propidium+inhibitor/IFAChE+Propidium) × 100,(1) where IFAChE+Propidium is the fluorescence intensity of the propidium associated with AChE in the absence of the test compound (taken as 100%) and IFAChE+Propidium+inhibitor is the fluorescence intensity of the propidium associated with AChE in the presence of the test compound.

Test [1] relates to isolated rat liver mitochondria. Put plainly: Mitochondrial membrane potential and calcium-induced depolarization (safranine O). Format: biochemical. Particulars: depolarization after 10-min incubation with 30 µM compound, mean ± SD; for ΔΨm, CI (g/m): complex I substrates (glutamate, malate); for ΔΨm, CII (s/r): complex II substrate (succinate) in the presence of rotenone. How it is done: The primary screening of new compounds to determine their effect on the mitochondrial membrane potential formed due to respiratory chain (RC) activity after additions of RC substrates was performed on isolated rat liver mitochondria. It can be used to estimate the probability of the potential toxicity of these compounds. Furthermore, the influence of the compounds on the calcium-dependent depolarization of isolated rat liver mitochondria in this assay made it possible to evaluate the effect on the mitochondrial permeability transition.
Rat liver mitochondria were isolated by conventional differential centrifugation from the livers of adult Wistar strain rats that fasted overnight, pH 7.6 [83, 84]. The mitochondrial protein concentration was determined using a biuret procedure with bovine serum albumin as the standard.
Safranine O (10 µM) was used as a membrane potential probe. Fluorescence intensity at 580 nm (excitation at 520 nm) was measured with a Wallac Victor 3 1420 Multilabel Counter (Perkin Elmer, Turku, Finland). The mitochondrial protein concentration was 0.2 mg/mL. The medium for measurements contained 75 mM sucrose, 225 mM mannitol, 10 mM K-HEPES (pH 7.4), 0.02 mM EGTA, and 1 mM KH2PO4. After a 5-min incubation, 5 mM glutamate/malate or 5 mM succinate in the presence of 0.5 µM rotenone were added to produce the mitochondrial potential. Then, the compounds (30 µM) or the same volume of the vehicle (DMSO) were injected into the mitochondrial suspension. After 15–20 min, 12.5 µM CaCl2 was added to each sample to induce the depolarization of mitochondria, and after 5 min, 0.5 µM CCCP was added for maximum depolarization of the mitochondria. The level of depolarization (ΔΨm) was calculated using the fluorescence value after 10-min incubation with 30 µM of compounds (or vehicle) normalized between the fluorescence measurements after substrate and CCCP addition, where fluorescence intensity at 580 nm was 100% after substrate addition and was 0% after CCCP addition.

T1 sequence (P81908 whole entry): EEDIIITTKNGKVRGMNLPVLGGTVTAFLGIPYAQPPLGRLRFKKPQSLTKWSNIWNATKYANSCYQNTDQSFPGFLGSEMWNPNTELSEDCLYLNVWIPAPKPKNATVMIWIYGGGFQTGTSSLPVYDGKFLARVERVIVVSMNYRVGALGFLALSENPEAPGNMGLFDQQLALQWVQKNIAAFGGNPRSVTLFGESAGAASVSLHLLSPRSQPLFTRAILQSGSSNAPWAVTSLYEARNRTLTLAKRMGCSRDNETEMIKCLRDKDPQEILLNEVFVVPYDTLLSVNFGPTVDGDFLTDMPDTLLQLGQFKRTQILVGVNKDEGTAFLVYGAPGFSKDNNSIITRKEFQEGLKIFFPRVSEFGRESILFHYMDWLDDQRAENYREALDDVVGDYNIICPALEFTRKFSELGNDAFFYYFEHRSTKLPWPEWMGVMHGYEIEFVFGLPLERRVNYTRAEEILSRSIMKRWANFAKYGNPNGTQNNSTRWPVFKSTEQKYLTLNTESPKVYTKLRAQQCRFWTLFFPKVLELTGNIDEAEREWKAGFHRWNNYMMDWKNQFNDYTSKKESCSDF

The IC50 is the concentration that gives 50% inhibition. The low end stands for higher potency, the high end for lower potency. On equine serum BChE, `Cc1ccc2c(c1)c1c(n2CCC(=O)N2c3ccc(N(C)C)cc3Sc3cc(N(C)C)ccc32)CCCCC1` [Compound 4k] yielded an IC50 of 22.2 ± 0.92 µM. For the same molecule, it took 12.9 ± 0.53 µM to reach half-maximal inhibition against human erythrocyte AChE (IC50). In the test on porcine liver CES, the “CES inhibition at 20 µM” value was 5.3 ± 0.6%. On EeAChE PAS, the inhibition at 3 µM amounted to 12.1 ± 0.8% and the inhibition at 20 µM amounted to 15.8 ± 0.7%. Besides, in test [1], the “ΔΨm, CI (g/m)” value was found to be 6 ± 3% and the “ΔΨm, CII (s/r)” value came out at 62 ± 1%.
At equine serum BChE, `CN(C)c1ccc2c(c1)Sc1cc(N(C)C)ccc1N2C(=O)CCn1c2c(c3ccccc31)CCCCCC2` [Compound 4m] showed an IC50 of 21.7 ± 0.51 µM. The molecule also showed an IC50 at human erythrocyte AChE of 2.98 ± 0.1 µM. In the test with porcine liver CES, the “CES inhibition at 20 µM” value is reported as 13.0 ± 1.1%. In addition, at EeAChE PAS, the inhibition at 3 µM was found to be 17.3 ± 1.2% and the inhibition at 20 µM came to 37.4 ± 0.8%. In test [1], the “ΔΨm, CI (g/m)” value is 23 ± 9% and the “ΔΨm, CII (s/r)” value turned out to be 57 ± 6%.
